Experiment [1] is described as follows: Inhibition of recombinant Staphylococcus aureus C-terminal hexahistidine tagged Biotin protein ligase expressed in Escherichia coli BL21 (DE3) assessed as inhibition constant incubated for 30 mins by [3H]-Biotin incorporation based radioactivity based assay.
Experiment [2] can be described thus: Inhibition of recombinant Staphylococcus aureus C-terminal hexahistidine tagged Biotin protein ligase expressed in Escherichia coli BL21 (DE3) assessed as inhibition constant incubated for 10 mins in presence of ATP by [3H]-Biotin incorporation based liquid scintillation counting analysis.
Experiment [3] can be described thus: Inhibition of Staphylococcus aureus Biotin protein ligase assessed as inhibition constant.
For experiment [4], the system named is Staphylococcus aureus. Briefly: Antibacterial activity against Staphylococcus aureus ATCC 49775 assessed as inhibition of bacterial growth. Format: functional.
The nature of experiment [5]: Inhibition of Staphylococcus aureus Biotin protein ligase assessed as inhibition constant by biotinylation assay.
The test system of experiment [6] is Staphylococcus aureus. Briefly: Antibacterial activity against Staphylococcus aureus ATCC 49775 assessed as inhibition of bacterial growth incubated for 16 to 20 hrs by CLSI protocol based two-fold serial dilution method. It counts as functional. The conditions noted are these: time 16-20 hrs.

Results on 19 molecules are retold here after ChEMBL document CHEMBL5257061, “Structural Study of Potent Triazole-Based Inhibitors of Staphylococcus aureus Biotin Protein Ligase” (ACS Med Chem Lett, 2023).

In brackets after ≈: the same amount, converted by molar mass.

On to `Nc1ncnc2c1ncn2[C@@H]1O[C@H](COP(=O)(O)OCCCCC[C@@H]2SC[C@@H]3NC(=O)N[C@@H]32)[C@@H](O)[C@H]1O`, for which the Ki in experiment [1] was 30 nM. On to `Cc1ccc2oc(=O)n(CCCCn3cc(CCCCC[C@@H]4SC[C@@H]5NC(=O)N[C@@H]54)nn3)c2c1`, for which, in experiment [2], the inhibitory constant (Ki) is 230 nM. The same measure, in the same setting: the result for `O=C1N[C@H]2[C@H](CS[C@H]2CCCCCc2cn(Cc3cccc(F)c3)nn2)N1` reads 670 nM. Same read-out and setting: in the case of `O=C1N[C@H]2[C@H](CS[C@H]2CCCCCc2cn(Cc3ccc(C(=O)O)cc3)nn2)N1` it was 280 nM. With `Nc1cc(CNC(=O)c2ccc(C(c3cccc(F)c3)n3cc(CCCCC[C@@H]4SC[C@@H]5NC(=O)N[C@@H]54)nn3)cc2)ccn1` (some centres not stated), the Ki in experiment [3] is 8.43 nM. In the experiment on Staphylococcus aureus [4], the MIC is 8 µg/mL (≈ 13 µM).

Consider `NCCCNC(=O)c1ccc(C(c2cccc(F)c2)n2nnc(CCCCC[C@@H]3SC[C@@H]4NC(=O)N[C@@H]43)c2F)cc1` (some centres not stated), for which the Ki in experiment [5] came out at 268 nM. The MIC in the experiment on Staphylococcus aureus [6] was more than 64 µg/mL. As for `NC(=O)CCCCNC(=O)c1ccc(C(c2cccc(F)c2)n2cc(CCCCC[C@@H]3SC[C@@H]4NC(=O)N[C@@H]43)nn2)cc1` (some centres not stated), the Ki in experiment [5] was 246 nM. Besides, the MIC in the experiment on Staphylococcus aureus [6] is more than 64 µg/mL. For `O=C1N[C@H]2[C@H](CS[C@H]2CCCCCc2cn(C(c3ccc(C(=O)NCc4ccncc4)cc3)c3cccc(F)c3)nn2)N1` (some centres not stated), in that order: 130 nM and more than 64 µg/mL. With `O=C1N[C@H]2[C@H](CS[C@H]2CCCCCc2cn(C(c3ccc(C(=O)NCc4ccccn4)cc3)c3cccc(F)c3)nn2)N1` (some centres not stated), the Ki in experiment [5] came to 544 nM. For the same molecule, in the experiment with Staphylococcus aureus [6], the MIC was more than 64 µg/mL. On to `Cc1ccc2oc(=O)n(CCCCn3nnc(CCCCC[C@@H]4SC[C@@H]5NC(=O)N[C@@H]54)c3F)c2c1`, for which the Ki in experiment [2] was determined as 420 nM. Regarding `Nc1ncnc2c1ncn2[C@@H]1O[C@H](Cn2cc(CCCCC[C@@H]3SC[C@@H]4NC(=O)N[C@@H]43)nn2)[C@@H](O)[C@H]1O`, the Ki in experiment [1] worked out at 1170 nM.

For `NC(=O)CCCNC(=O)c1ccc(C(c2cccc(F)c2)n2cc(CCCCC[C@@H]3SC[C@@H]4NC(=O)N[C@@H]43)nn2)cc1` (some centres not stated), the Ki in experiment [5] stood at 10 nM. Further, the MIC in the experiment on Staphylococcus aureus [6] amounted to 4 µg/mL (≈ 6.74 µM). Consider `NCCCNC(=O)c1ccc(C(c2cccc(F)c2)n2cc(CCCCC[C@@H]3SC[C@@H]4NC(=O)N[C@@H]43)nn2)cc1` (some centres not stated), for which, in experiment [5], the inhibitory constant (Ki) worked out at 30 nM. The MIC in the experiment with Staphylococcus aureus [6] amounted to 8 µg/mL (≈ 14.1 µM).

Take `Nc1cc(CNC(=O)c2ccc(C(c3cccc(F)c3)n3nnc(CCCCC[C@@H]4SC[C@@H]5NC(=O)N[C@@H]54)c3F)cc2)ccn1` (some centres not stated): the Ki in experiment [5] is 131 nM. Moreover, the MIC in the experiment on Staphylococcus aureus [6] is more than 64 µg/mL. Turning to `O=C1N[C@H]2[C@H](CS[C@H]2CCCCCc2cn(C(c3ccc(C(=O)NCCc4c[nH]cn4)cc3)c3cccc(F)c3)nn2)N1` (some centres not stated), the Ki in experiment [3] came out at 6.01 nM. The MIC in the experiment on Staphylococcus aureus [4] amounted to 1 µg/mL (≈ 1.66 µM). In the case of `O=C1N[C@H]2[C@H](CS[C@H]2CCCCCc2cn(C(c3ccc(C(=O)NCCCc4c[nH]cn4)cc3)c3cccc(F)c3)nn2)N1` (some centres not stated), the Ki in experiment [5] was determined as 181 nM. The MIC with Staphylococcus aureus [6] was determined as 32 µg/mL (≈ 51.9 µM). For `Nc1ccc(CNC(=O)c2ccc(C(c3cccc(F)c3)n3cc(CCCCC[C@@H]4SC[C@@H]5NC(=O)N[C@@H]54)nn3)cc2)cc1` (some centres not stated), in that order: 63 nM and more than 64 µg/mL. Turning to `O=C1N[C@H]2[C@H](CS[C@H]2CCCCCc2cn(C(c3ccc(C(=O)NCc4cccnc4)cc3)c3cccc(F)c3)nn2)N1` (some centres not stated), the Ki in experiment [5] turned out to be 237 nM. The MIC in the experiment with Staphylococcus aureus [6] was more than 64 µg/mL. With `O=C1N[C@H]2[C@H](CS[C@H]2CCCCCc2cn(C(c3ccc(C(=O)NCc4ccccc4)cc3)c3cccc(F)c3)nn2)N1` (some centres not stated), the Ki in experiment [5] worked out at 867 nM. In addition, the MIC with Staphylococcus aureus [6] was more than 64 µg/mL.
